Laboratory results taken from paper PMC6010071, “Blocking oestradiol synthesis pathways with potent and selective coumarin derivatives” (Journal of Enzyme Inhibition and Medicinal Chemistry, 2018).
Where two headings read alike, the source gives them in different places.

Experiments:
Assay type in all cases: biochemical
[1] = biological target: T1, heterologously expressed human CYP1A2 enzyme (Homo sapiens, UniProt P05177); experiment: CYP1A2 inhibition; details: for IC50: read-out: CYP1A2 inhibition ∼ pIC50 (converted)
T1 construct: purchased Corning Inc., Corning, NY
T1 sequence (P05177 1-516): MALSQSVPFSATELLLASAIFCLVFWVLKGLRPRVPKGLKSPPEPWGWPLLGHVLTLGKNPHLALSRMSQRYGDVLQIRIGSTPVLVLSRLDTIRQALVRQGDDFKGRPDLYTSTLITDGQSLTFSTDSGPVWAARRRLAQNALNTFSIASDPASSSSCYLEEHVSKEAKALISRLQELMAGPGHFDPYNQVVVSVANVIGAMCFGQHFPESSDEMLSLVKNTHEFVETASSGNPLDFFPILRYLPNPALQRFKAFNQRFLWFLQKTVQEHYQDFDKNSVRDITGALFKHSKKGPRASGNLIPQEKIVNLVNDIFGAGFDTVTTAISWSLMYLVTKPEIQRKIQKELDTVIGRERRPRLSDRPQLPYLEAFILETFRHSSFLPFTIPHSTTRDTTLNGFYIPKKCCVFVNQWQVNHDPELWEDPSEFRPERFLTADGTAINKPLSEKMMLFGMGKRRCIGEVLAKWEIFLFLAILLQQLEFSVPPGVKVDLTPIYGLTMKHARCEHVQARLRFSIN
Description: Inhibition of CYP1A2 activity was determined using commercial heterologously expressed human CYP1A2 enzyme (Corning Inc., Corning, NY) essentially as described previously.

[2] = biological target: T2, MAO-B (Homo sapiens, UniProt P27338); experiment: MAO-B inhibition, continuous spectrophotometric assay; details: single point, read at 2 h
T2 construct: purchased Sigma-Aldrich (St. Louis, MO)
T2 sequence (P27338 1-520): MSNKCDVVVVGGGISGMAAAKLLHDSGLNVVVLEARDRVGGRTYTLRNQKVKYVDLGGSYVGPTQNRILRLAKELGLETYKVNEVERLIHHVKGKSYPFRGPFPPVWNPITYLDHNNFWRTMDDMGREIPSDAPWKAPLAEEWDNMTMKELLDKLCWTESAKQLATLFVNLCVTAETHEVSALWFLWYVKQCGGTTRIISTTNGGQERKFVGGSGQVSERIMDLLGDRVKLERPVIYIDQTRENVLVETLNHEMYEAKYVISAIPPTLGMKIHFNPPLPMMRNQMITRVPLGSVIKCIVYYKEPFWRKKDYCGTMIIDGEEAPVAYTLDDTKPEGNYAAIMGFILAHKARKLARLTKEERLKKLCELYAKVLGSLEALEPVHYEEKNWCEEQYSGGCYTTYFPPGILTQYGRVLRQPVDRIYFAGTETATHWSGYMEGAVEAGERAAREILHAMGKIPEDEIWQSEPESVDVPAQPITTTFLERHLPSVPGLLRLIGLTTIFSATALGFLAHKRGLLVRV
Description: (§1) The protocol of continuous spectrophotometric assay by Holt et al. was first used to determine the activity of the proteins. […] The protein was first incubated for 30 min at 37 °C in the chromogenic solution and then the substrate tyramine was introduced at 0.5 mM final plate concentration completing the assay volume. […] The assay should produce absorbance change of ∼0.35[23]. […] These protein concentrations were selected to be used to analyse the molecules 1–9. The analysis conditions followed the above-described assay protocol[23] and the activity of tested molecules was measured at 100 µM for MAO-A and at 10 µM for MAO-B. The analysis was performed as single point measurements and the signal was read by the same instrument at the expected assay maximum indicated by the activity measurements, at 30 min for MAO-A and at 2 h for MAO-B, respectively. […] The observed activity was calculated as inhibition percentage (Table 1).

[3] = biological target: T3, recombinant human HSD1 (Homo sapiens, UniProt P14061); experiment: HSD1 inhibition, HPLC assay of [3H]-E1 to [3H]-E2 conversion; details: for inhibition at 0.1 µM: average of two measurements; for inhibition at 0.1 µM / inhibition at 1 µM: except for compounds 8 and 9; for inhibition at 1 µM: average of three measurements; for IC50: estimated from three measurements at 1 µM, average ± standard error, read-out: HSD1 inhibition ∼ pIC50 (converted)
T3 construct: made in house; host or cells: Sf9 insect cells
T3 sequence (P14061 1-328): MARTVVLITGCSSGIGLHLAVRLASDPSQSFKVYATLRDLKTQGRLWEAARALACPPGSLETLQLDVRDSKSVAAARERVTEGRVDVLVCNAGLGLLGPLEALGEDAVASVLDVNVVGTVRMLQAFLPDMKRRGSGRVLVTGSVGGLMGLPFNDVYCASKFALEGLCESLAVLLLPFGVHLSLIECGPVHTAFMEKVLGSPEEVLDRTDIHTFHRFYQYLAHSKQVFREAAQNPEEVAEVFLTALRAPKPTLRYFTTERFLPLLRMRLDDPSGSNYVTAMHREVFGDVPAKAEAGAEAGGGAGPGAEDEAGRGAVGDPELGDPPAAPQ
Description: The inhibition was determined by HPLC using recombinant human HSD1 and HSD2 proteins as described in a prior study. In short, recombinant human HSD1 and HSD2 were produced in Sf9-insect cells. […] After incubation, the reaction was stopped by addition of […] 10% trichloroacetic acid per sample. […] The ratio of [3H]-E1 converted to [3H]-E2 or vice versa determines the conversion percentage of the samples. Inhibition was measured in three concentrations (100 nM, 1, and 5 µM) in order to follow the progression of inhibition efficiencies. Inhibition efficiencies of the tested inhibitors were calculated by comparing the conversion percentages of the samples including inhibitors with those of conversion controls (without inhibitors).

[4] = biological target: T4, MAO-A (Homo sapiens, UniProt P21397); experiment: MAO-A inhibition, continuous spectrophotometric assay; details: read-out: MAO-A inhibition at 100 µM
T4 construct: purchased Sigma-Aldrich (St. Louis, MO)
T4 sequence (P21397 1-527): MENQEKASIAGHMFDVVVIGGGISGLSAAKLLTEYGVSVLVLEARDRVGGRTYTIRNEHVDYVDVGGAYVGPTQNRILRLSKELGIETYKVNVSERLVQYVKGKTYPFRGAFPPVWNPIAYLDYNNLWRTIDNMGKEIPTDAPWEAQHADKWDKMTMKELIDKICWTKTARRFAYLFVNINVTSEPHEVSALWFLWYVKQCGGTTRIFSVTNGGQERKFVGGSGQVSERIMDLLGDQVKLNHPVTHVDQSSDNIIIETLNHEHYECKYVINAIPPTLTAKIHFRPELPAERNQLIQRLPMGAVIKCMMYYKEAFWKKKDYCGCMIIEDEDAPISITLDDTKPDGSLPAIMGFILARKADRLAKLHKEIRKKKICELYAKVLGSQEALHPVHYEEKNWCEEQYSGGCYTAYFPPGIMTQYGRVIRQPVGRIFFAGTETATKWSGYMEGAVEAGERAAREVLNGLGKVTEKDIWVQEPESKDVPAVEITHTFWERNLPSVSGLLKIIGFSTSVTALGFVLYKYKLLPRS
Description: as §1

[5] = biological target: T2, MAO-B; experiment: MAO-B inhibition, continuous spectrophotometric assay
[6] = 10 µM, read-out: MAO-B inhibition at 10 µM
[7] = 100 nM, read-out: HSD1 inhibition at 100 nM
[8] = 1 µM, read-out: HSD1 inhibition at 1 µM
[9] = 5 µM, read-out: HSD1 inhibition at 5 µM
[10] = 100 µM, single point, read at 30 min
[11] = duplicated dilution series, read-out: MAO-B inhibition pIC50 (converted)
[12] = restated from pIC50 above 6, read-out: MAO-B inhibition IC50

SMILES	IC50 [1] [nM]	inhibition at 10 µM [2, 6] [%]	inhibition at 0.1 µM [3, 7] [%]	inhibition at 1 µM [3, 8] [%]	inhibition at 5 µM [3, 9] [%]	IC50 [3] [nM]	inhibition at 100 µM [4, 10] [%]	inhibition at 10 µM ([2]; read-out: MAO-B inhibition at 10 µM, 10 µM) [%]	inhibition at 100 µM [4] [%]	inhibition at 0.1 µM ([3]; read-out: HSD1 inhibition at 100 nM, 100 nM) [%]	inhibition at 1 µM ([3]; read-out: HSD1 inhibition at 1 µM, 1 µM) [%]	inhibition at 5 µM ([3]; read-out: HSD1 inhibition at 5 µM, 5 µM) [%]	CYP1A2 inhibition ∼ pIC50 [1]	IC50 [5, 11] [nM]	IC50 [5, 12] [nM]
O=c1oc2ccc(Cl)cc2cc1-c1cccc(O)c1 [Compound 4, 6-chloro-3–(3-hydroxyphenyl)-2H-chromen-2-one]	129	64	47	≥ 68	95	158									
O=c1oc2ccccc2cc1-c1cccc(O)c1 [Compound 3, 3–(3-hydroxyphenyl)-2H-chromen-2-one]	7080	50	7	47	76	1260	4								
COc1ccc(-c2cc3cccc(O)c3oc2=O)cc1 [Compound 1, 8-hydroxy-3–(4-methoxyphenyl)-2H-chromen-2-one]	85100	48	16	≥ 68	88	501	4								
O=c1oc2ccc(O)cc2cc1-c1ccc(O)cc1 [Compound 2, 6-hydroxy-3–(4-hydroxyphenyl)-2H-chromen-2-one]	33100					631		16	-6	26	≥ 68	83			
COc1ccc2cc(-c3ccc(O)c(F)c3)c(=O)oc2c1 [Compound 6, 3–(3-fluoro-4-hydroxyphenyl)-7-methoxy-2H-chromen-2-one]			14	23	27	3980	-1						4.52	407	< 1000
COc1ccc2oc(=O)c(-c3ccc(O)c(F)c3)cc2c1 [Compound 7, 3–(3-fluoro-4-hydroxyphenyl)-6-methoxy-2H-chromen-2-one]			16	39	62	1580	-11						5.82	851	< 1000
